Patent US20130096305A1, “[…] […]” (priority 2010, published 2013)
pEC50: −log10 of the molar value.

Tested on: HIV-1 LAI envelope single-round infectious reporter virus
Assay: Single-round infectious luciferase reporter virus infection of MT2 cells
Assay type: cell-based
Conditions: Human immunodeficiency virus 1, MT2, 72 h
Excerpt: • Virus production—Human embryonic Kidney cell line, 293T (HEK 293T), was propagated in Dulbecco's Modified Eagle Medium (Invitrogen, Carlsbad, Calif.) containing 10% fetal Bovine serum (FBS, Sigma, St. Louis, Mo.). The human T-cell leukemia cell MT2 (AIDS Research and Reference Reagent Program, Cat. 237) was propagated in RPMI 1640 (Invitrogen, Carlsbad, Calif.) containing 10% fetal bovine serum (FBS, Hyclone, Logan, Utah) • Virus infection—Single-round infectious reporter virus was produced by co-transfecting HEK 293T cells with plasmide expressing the HIV-1 LAI envelope along with a plasmid containing an HIV-1 LAI proviral cDNA with the envelope gene replaced by a firefly luciferase reporter gene (Chen et al, Ref 41). Transfections were performed using lipofectAMINE PLUS reagent as described by the manufacturer (Invitrogen, Carlsbad, Calif.).
• 1. MT2 cells were plated in black, 384 well plates at a cell density of 5×10^3 cells per well in 25 μl RPMI 1640 containing 10% FBS. • 2. Compound (diluted in dimethylsulfoxide and growth medium) was added to cells at 12.5 μl/well, so that the final assay concentration would be ≦50 nM. • 3. 12.5 μl of single-round infectious reporter virus in Dulbecco's Modified Eagle Medium was added to the plated cells and compound at an approximate multiplicity of infection (MOI) of 0.01, resulting in a final volume of 50 μl per well. • 4. Virus-infected cells were incubated at 37 degrees Celsius, in a CO2 incubator, and harvested 72 h after infection. • 5. Viral infection was monitored by measuring luciferase expression in the infected cells using a luciferase reporter gene assay kit (Steady-Glo, Promega, Madison, Wis.) as described by the manufacturer. Luciferase activity was then quantified by measuring luminescence using an EnVision Multilabel Plate Readers (PerkinElmer, Waltham, Mass.). • 6. The percent inhibition for each compound was calculated by quantifying the level of luciferase expression in cells infected in the presence of each compound as a percentage of that observed for cells infected in the absence of compound and subtracting such a determined value from 100. • 7. An EC50 provides a method for comparing the antiviral potency of the compounds of this disclosure. The effective concentration for fifty percent inhibition (EC50) was calculated with the Microsoft Excel Xlfit curve fitting software. For each compound, curves were generated from percent inhibition calculated at 10 different concentrations by using a four paramenter logistic model (model 205).

Structure (SMILES): [2H]c1c([2H])c([2H])c(C(=O)N2C([2H])([2H])C([2H])([2H])N(C(=O)C(=O)c3c[nH]c4c(OC)ncc(OC)c34)C([2H])([2H])C2([2H])[2H])c([2H])c1[2H] [Compound 0001]
- pEC50: 9.17

Structure (SMILES): [2H]c1c([2H])c([2H])c(C(=O)N2CCN(C(=O)C(=O)c3c[nH]c4c(OC)ncc(OC)c34)CC2)c([2H])c1[2H] [Compound 0002]
- pEC50: 9.20

Structure (SMILES): [2H]C1([2H])N(C(=O)C(=O)c2c[nH]c3c(OC)ncc(OC)c23)C([2H])([2H])C([2H])([2H])N(C(=O)c2ccccc2)C1([2H])[2H] [Compound 0003]
- pEC50: 9.26

Structure (SMILES): [2H]c1c([2H])c([2H])c(C(=O)N2C([2H])([2H])C([2H])([2H])N(C(=O)C(=O)c3c[nH]c4c(-n5ccnn5)ncc(OC)c34)C([2H])([2H])C2([2H])[2H])c([2H])c1[2H] [Compound 0004]
- pEC50: 10.00

Structure (SMILES): [2H]c1c([2H])c([2H])c(C(=O)N2CCN(C(=O)C(=O)c3c[nH]c4c(-n5ccnn5)ncc(OC)c34)CC2)c([2H])c1[2H] [Compound 0005]
- pEC50: 9.62

Structure (SMILES): [2H]C1([2H])N(C(=O)C(=O)c2c[nH]c3c(-n4ccnn4)ncc(OC)c23)C([2H])([2H])C([2H])([2H])N(C(=O)c2ccccc2)C1([2H])[2H] [Compound 0006]
- pEC50: 10.10

Structure (SMILES): [2H]c1c([2H])c([2H])c(C(=O)N2C([2H])([2H])C([2H])([2H])N(C(=O)C(=O)c3c[nH]c4c(-n5ccnn5)ncc(F)c34)C([2H])([2H])C2([2H])[2H])c([2H])c1[2H] [Compound 0007]
- pEC50: 9.96

Structure (SMILES): [2H]c1c([2H])c([2H])c(C(=O)N2CCN(C(=O)C(=O)c3c[nH]c4c(-n5ccnn5)ncc(F)c34)CC2)c([2H])c1[2H] [Compound 0008]
- pEC50: 10.00

Structure (SMILES): [2H]C1([2H])N(C(=O)C(=O)c2c[nH]c3c(-n4ccnn4)ncc(F)c23)C([2H])([2H])C([2H])([2H])N(C(=O)c2ccccc2)C1([2H])[2H] [Compound 0009]
- pEC50: 9.85

Structure (SMILES): [2H]c1c([2H])c([2H])c(C(=O)N2C([2H])([2H])C([2H])([2H])N(C(=O)C(=O)c3c[nH]c4c(-n5cnc(C)n5)ncc(OC)c34)C([2H])([2H])C2([2H])[2H])c([2H])c1[2H] [Compound 0010]
- pEC50: 10.22

Structure (SMILES): [2H]c1c([2H])c([2H])c(C(=O)N2CCN(C(=O)C(=O)c3c[nH]c4c(-n5cnc(C)n5)ncc(OC)c34)CC2)c([2H])c1[2H] [Compound 0011]
- pEC50: 9.92

Structure (SMILES): [2H]C1([2H])N(C(=O)C(=O)c2c[nH]c3c(-n4cnc(C)n4)ncc(OC)c23)C([2H])([2H])C([2H])([2H])N(C(=O)c2ccccc2)C1([2H])[2H] [Compound 0012]
- pEC50: 10.15
